In US11999727B2 (Tango Therapeutics, Inc., priority 2020, dated 2024):

How the values were obtained:
[1] = biological target: T1, PRMT5 (Homo sapiens, UniProt O14744); test: PRMT5 biochemical IC50 assay with SAM as cofactor; settings: PRMT5, SAM as cofactor; read-out: SAM IC50
T1 construct: purchased Viva (custom protein)

[2] = biological target: T1, PRMT5; test: PRMT5 biochemical IC50 assay with no cofactor; settings: PRMT5, no cofactor; read-out: No Cofactor/ rel IC50
Source text: Table 1 indicates IC50 values (μM) against PRMT5 for exemplary compounds in the presence of SAM as cofactor, with no cofactor, and with MTA as cofactor, respectively (columns 4-6). […] Ki values can be calculated from the IC50 values as described in the Examples section. As detailed in the Examples section, for the assay performed in the presence of SAM, IC50=Ki×1.5 (Ki=IC50/1.5).

[3] = biological target: T1, PRMT5; test: PRMT5 biochemical IC50 assay with MTA as cofactor; settings: PRMT5, MTA as cofactor; read-out: MTA IC50
[4] = test system: HAP1 MTAP-intact cell line; test: SDMA in-cell western assay, HAP1 MTAP-intact; type: cell-based; settings: Homo sapiens, HAP1, SDMA in-cell western, HAP1 MTAP-intact; read-out: MTAP HAP1 intact IC50
How it was run: (§1)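 Compounds were tested in HAP1 cells differing only in MTAP status (endogenous expression versus null). Cellular SDMA levels were then measured by in-cell western, giving an IC50 in each background.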

[5] = test system: HAP1 MTAP-deleted cell line; test: SDMA in-cell western assay, HAP1 MTAP-deleted; type: cell-based; settings: for IC50: Homo sapiens, HAP1, SDMA in-cell western, HAP1 MTAP-deleted, read-out: HAP 1 MTAP deleted IC50; for MTAP intact/deleted ratio: IC50 ratio HAP1 MTAP-intact / HAP1 MTAP-deleted, SDMA in-cell western
How it was run: as §1

[6] = test system: HAP1 MTAP-deleted cell line; test: Viability assay, MTAP-deleted cell line; type: cell-based; settings: Homo sapiens, HAP1, viability assay, MTAP-deleted cell line; read-out: HAP1 MTAP deleted viability
Source text: Table 1 additionally indicates IC50 values in a viability assay for the MTAP-deleted cell line (column 10), indicating the effect of treatment with compound on cell survival.

T1 sequence (O14744 whole entry): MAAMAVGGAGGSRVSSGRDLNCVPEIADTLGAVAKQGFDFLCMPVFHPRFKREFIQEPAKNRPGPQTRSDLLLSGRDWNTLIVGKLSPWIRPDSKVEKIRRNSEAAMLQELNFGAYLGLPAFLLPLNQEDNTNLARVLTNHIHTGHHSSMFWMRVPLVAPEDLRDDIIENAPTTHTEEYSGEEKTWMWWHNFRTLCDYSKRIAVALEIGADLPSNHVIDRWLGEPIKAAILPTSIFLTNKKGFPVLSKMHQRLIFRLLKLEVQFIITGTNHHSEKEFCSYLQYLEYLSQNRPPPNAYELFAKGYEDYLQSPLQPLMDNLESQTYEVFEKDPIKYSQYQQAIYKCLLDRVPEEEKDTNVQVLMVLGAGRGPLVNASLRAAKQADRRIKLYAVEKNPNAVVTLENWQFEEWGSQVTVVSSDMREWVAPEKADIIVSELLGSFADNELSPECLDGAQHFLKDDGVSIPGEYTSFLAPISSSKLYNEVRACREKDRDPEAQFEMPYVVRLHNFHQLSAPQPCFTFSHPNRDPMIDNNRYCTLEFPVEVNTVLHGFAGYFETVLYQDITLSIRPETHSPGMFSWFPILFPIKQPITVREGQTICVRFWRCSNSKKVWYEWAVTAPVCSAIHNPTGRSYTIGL
T1 sequence (Q9BQA1 whole entry partner): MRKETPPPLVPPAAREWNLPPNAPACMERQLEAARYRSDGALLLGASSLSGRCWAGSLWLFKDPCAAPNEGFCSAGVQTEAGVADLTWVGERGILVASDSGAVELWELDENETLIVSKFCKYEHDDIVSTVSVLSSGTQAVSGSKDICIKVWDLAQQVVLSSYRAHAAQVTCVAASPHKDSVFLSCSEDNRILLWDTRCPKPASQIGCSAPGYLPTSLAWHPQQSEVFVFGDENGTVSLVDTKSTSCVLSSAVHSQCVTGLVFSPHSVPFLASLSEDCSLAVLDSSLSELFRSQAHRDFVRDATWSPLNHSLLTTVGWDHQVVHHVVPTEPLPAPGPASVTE

Row | SMILES | IC50 [1] [nM] | IC50 [2] [nM] | IC50 [3] [nM] | IC50 [4] [nM] | IC50 [5] [nM] | MTAP intact/deleted ratio [5] | IC50 [6] [nM]
1 | COc1ccc([C@@H]2CC[C@@H](C)CN2C(=O)C(=O)Nc2cncc(C(N)=O)c2)cn1 (racemic) [Compound 128, rac-5-{2-[(2R,5S)-2-(6-Methoxypyridin-3-yl)-5-methylpiperidin-1-yl]-2-oxoacetamido}pyridine-3-carboxamide] | 50 to 500 | 50 to 500 | < 50 | > 1000 | 100 to 1000 | A (an IC50 ratio greater than or equal to 10 fold) | > 10000
2 | Cc1cc([C@@H]2CC[C@@H](C)CN2C(=O)C(=O)Nc2cncc(C(N)=O)c2)ccc1F (racemic) [Compound 131, rac-5-{2-[(2R,5S)-2-(4-Fluoro-3-methylphenyl)-5-methylpiperidin-1-yl]-2-oxoacetamido}pyridine-3-carboxamide] | > 500 | 50 to 500 | < 50 | > 1000 | < 100 | A (an IC50 ratio greater than or equal to 10 fold) | 1000 to 10000
3 | NC(=O)c1cncc(NC(=O)C(=O)N2CCC3CCCCCC3C2)c1 (racemic) [Compound 133, 5-(2-{Decahydro-1H-cyclohepta[c]pyridin-2-yl}-2-oxoacetamido)pyridine-3-carboxamide] | 50 to 500 | > 500 | 50 to 500 | > 1000 | > 1000 | B (an IC50 ratio greater than or equal to 3 fold but lower than 10 fold) | > 10000
4 | Cc1cc(NC(=O)C(=O)N2CCCCC2C(C)C)cnc1N (racemic) [Compound 135, N-(6-amino-5-methyl-3-pyridyl)-2-(2-isopropyl-1-piperidyl)-2-oxo-acetamide] | 50 to 500 | 50 to 500 | < 50 | > 1000 | 100 to 1000 | A (an IC50 ratio greater than or equal to 10 fold) | > 10000
5 | CC1(C)CCCC2CN(C(=O)C(=O)Nc3cncc(C(N)=O)c3)CCC21 (racemic) [Compound 141, 5-[2-(5,5-Dimethyl-decahydroisoquinolin-2-yl)-2-oxoacetamido]pyridine-3-carboxamide] | 50 to 500 | 50 to 500 | < 50 | > 1000 | 100 to 1000 | A (an IC50 ratio greater than or equal to 10 fold) | > 10000
6 | CC1CCC(C2CCCC2)CN1C(=O)C(=O)Nc1cncc(C(N)=O)c1 (racemic) [Compound 143, 5-[2-(5-Cyclopentyl-2-methylpiperidin-1-yl)-2-oxoacetamido]pyridine-3-carboxamide] | > 500 | > 500 | 50 to 500 | > 1000 | > 1000 | C (an IC50 ratio of less than 3 fold) | > 10000
7 | Cc1cc(NC(=O)C(=O)N2C[C@H](C)CC[C@H]2C2CCC(C(C)(C)C)CC2)cnc1N (mixture of isomers) [Compound 145, rac-N-(6-amino-5-methyl-3-pyridyl)-2-[(2S,5R)-2-(4-tert-butylcyclohexyl)-5-methyl-1-piperidyl]-2-oxo-acetamide] | 50 to 500 | 50 to 500 | < 50 | > 1000 | 100 to 1000 | C (an IC50 ratio of less than 3 fold) | > 10000
8 | Cc1cc(NC(=O)C(=O)N2C[C@H](C)CC[C@H]2c2cccnc2)cnc1N (racemic) [Compound 146, N-(6-amino-5-methyl-3-pyridyl)-2-[(2S,5R)-5-methyl-2-(3-pyridyl)-1-piperidyl]-2-oxo-acetamide] | 50 to 500 | 50 to 500 | < 50 | > 1000 | < 100 |  | 1000 to 10000
9 | Cc1cc(NC(=O)C(=O)N2C[C@H](C)CC[C@H]2C2CCCC(C)(C)C2)cnc1N (mixture of isomers) [Compound 150, N-(6-amino-5-methyl-3-pyridyl)-2-[(2S,5R)-2-(3,3-dimethylcyclohexyl)-5-methyl-1-piperidyl]-2-oxo-acetamide] | 50 to 500 | 50 to 500 | 50 to 500 | > 1000 | 100 to 1000 | C (an IC50 ratio of less than 3 fold) | 1000 to 10000
10 | CC1Cc2cc([C@@H]3CC[C@@H](C)CN3C(=O)C(=O)Nc3cncc(C(N)=O)c3)ccc2O1 (mixture of isomers) [Compound 151, rac-5-{2-[(2R,5S)-5-Methyl-2-(2-methyl-2,3-dihydro-1-benzofuran-5-yl)piperidin-1-yl]-2-oxoacetamido}pyridine-3-carboxamide] | 50 to 500 | 50 to 500 | < 50 | > 1000 | < 100 | A (an IC50 ratio greater than or equal to 10 fold) | 1000 to 10000
11 | Cc1cc(C)n(-c2cccc([C@@H]3CC[C@@H](C)CN3C(=O)C(=O)Nc3cncc(C(N)=O)c3)c2)n1 (racemic) [Compound 153, rac-5-{2-[(2R,5S)-2-[3-(3,5-Dimethyl-1H-pyrazol-1-yl)phenyl]-5-methylpiperidin-1-yl]-2-oxoacetamido}pyridine-3-carboxamide] | 50 to 500 | 50 to 500 | 50 to 500 | > 1000 | < 100 | A (an IC50 ratio greater than or equal to 10 fold) | 1000 to 10000
12 | C[C@@H]1CC[C@@H](c2ccccc2)N(C(=O)C(=O)Nc2cncc(C(N)=O)c2)[C@@H]1C (racemic) [Compound 154, rac-5-[[2-[(2R,3R,6S)-2,3-dimethyl-6-phenyl-1-piperidyl]-2-oxo-acetyl]amino]pyridine-3-carboxamide] | 50 to 500 | 50 to 500 | < 50 | > 1000 | > 1000 | B (an IC50 ratio greater than or equal to 3 fold but lower than 10 fold) | > 10000
13 | C[C@@H]1CC[C@@H](C2CCC2)N(C(=O)C(=O)Nc2cncc(C(N)=O)c2)C1 (racemic) [Compound 155, 5-[[2-[(2R,5S)-2-cyclobutyl-5-methyl-1-piperidyl]-2-oxo-acetyl]amino]pyridine-3-carboxamide] | 50 to 500 | 50 to 500 | < 50 | > 1000 | 100 to 1000 | A (an IC50 ratio greater than or equal to 10 fold) | > 10000
14 | Cc1cc(C)n(-c2ccc([C@@H]3CC[C@@H](C)CN3C(=O)C(=O)Nc3cncc(C(N)=O)c3)cc2)n1 (racemic) [Compound 157, rac-5-{2-[(2R,5S)-2-[4-(3,5-Dimethyl-1H-pyrazol-1-yl)phenyl]-5-methylpiperidin-1-yl]-2-oxoacetamido}pyridine-3-carboxamide] | 50 to 500 | 50 to 500 | 50 to 500 | > 1000 | > 1000 | B (an IC50 ratio greater than or equal to 3 fold but lower than 10 fold) | > 10000
15 | Cc1cc(NC(=O)C(=O)N2C[C@H](C)CC[C@H]2C)cnc1N (racemic) [Compound 158, N-(6-amino-5-methyl-3-pyridyl)-2-[(2R,5R)-2,5-dimethyl-1-piperidyl]-2-oxo-acetamide] | 50 to 500 | 50 to 500 | 50 to 500 | > 1000 | > 1000 | C (an IC50 ratio of less than 3 fold) | > 10000
16 | Cc1ccc([C@@H]2CC[C@@H](C)CN2C(=O)C(=O)Nc2cncc(C(N)=O)c2)cc1F (racemic) [Compound 162, rac-5-{2-[(2R,5S)-2-(3-Fluoro-4-methylphenyl)-5-methylpiperidin-1-yl]-2-oxoacetamido}pyridine-3-carboxamide] | 50 to 500 | 50 to 500 | < 50 | > 1000 | < 100 | A (an IC50 ratio greater than or equal to 10 fold) | 1000 to 10000
17 | C[C@@H]1CC[C@H](c2ccccc2)N(C(=O)C(=O)Nc2cncc(C(N)=O)c2)[C@@H]1C (racemic) [Compound 163, rac-5-[[2-[(2R,3R,6R)-2,3-dimethyl-6-phenyl-1-piperidyl]-2-oxo-acetyl]amino]pyridine-3-carboxamide] | 50 to 500 | 50 to 500 | < 50 | > 1000 | 100 to 1000 | A (an IC50 ratio greater than or equal to 10 fold) | > 10000
18 | Cc1cc(NC(=O)C(=O)N2C[C@H](C)CC[C@H]2C(C)C)cnc1N (racemic) [Compound 165, N-(6-amino-5-methyl-3-pyridyl)-2-[(2S,5R)-2-isopropyl-5-methyl-1-piperidyl]-2-oxo-acetamide] | 50 to 500 | 50 to 500 | < 50 | > 1000 | 100 to 1000 | A (an IC50 ratio greater than or equal to 10 fold) | > 10000
